Columns and labels:
[1] = test system: lesions induced by bFGF and VEGF combined; assay: Angiogenic KS-like lesions induced by bFGF and VEGF combined in nude mice; assay type: in vivo; conditions: bFGF 0.1 μg + VEGF 1 μg
Procedure: Since VEGF co-operates synergistically with bFGF in inducing angiogenesis and KS-lesion formation, mice (6 animals/group) were also inoculated with sub-optimal amounts of bFGF (0.1 μg) and VEGF (1 μg) combined, as previously performed to observe their synergistic effect (Samaniego et al 1998), and treated with HIV-PI as indicated above.
At sacrifice the sites of injection were examined for the presence of macroscopic angioproliferative lesions and tissue stained by H & E and analysed microscopically. Here are listed the number (No.) of mice that developed lesions with respect to the number (No.) of mice inoculated, and the percentage (%) of mice that developed lesions.

[2] = test system: KS-like lesions induced by KS cells (KS12); assay: Regression of KS-like lesions induced by KS cells in nude mice, no drug pre-treatment; assay type: in vivo; conditions: treatment started on the day of KS cell inoculation, 5 days
Procedure: Indinavir and saquinavir can also promote KS regression in the absence of any drug pre-treatment. […] Treatment was then continued for 5 days, until sacrifice. The mean size (cm^2) of the lesions present at the injection site evaluated by daily caliper measurement and calculated as the product of the two major lesion diameters is shown.
To determine whether HIV-PI can also promote KS regression in the absence of any drug pre-treatment, experiments were also performed by treating mice with HIV-PI at the time of KS cell inoculation.

[3] = test system: lung carcinoma cells (A549); assay: Cell growth assay of A549 cells; assay type: cell-based, human; conditions: 10 μM; 4 days
Procedure: Shown is the result of a representative cell growth assay performed on the lung carcinoma cells. Human lung carcinoma cells (A549; ATCC) were plated in triplicate (8×10^4 cells/well) in 12-well plates. […] Ensoli et al., 1994b): For all the in vitro studies HIV-PI as endotoxin-free pure powder (a kind gift of Merck Sharp & Dohme and Roche) were resuspended in distilled water. Assays were repeated at least three times.

bFGF = bFGF production by KS cells (ELISA); assay type: cell-based, human; conditions: 0.1, 1 and 10 μM; 5 days + 24 hours
Procedure: After 24 hours of incubation, the supernatants of the cultures were tested by ELISA (R & D Systems, Minneapolis, Minn., USA) to determine the quantity of IL-6 present in the medium. The quantity of IL-6 is expressed in pg/ml of supernatant. The same tests were carried out for bFGF, VEGF, IL-1α and IL-1β by means of commercial ELISA kits.
KS cells secrete cytokines with an inflammatory, oedemigenic, angiogenic and proliferative activity with autocrine and paracrine effects (Ensoli and Stürzl, 1998). These factors mediate all the processes required for KS-like lesions formation (angiogenesis, cellular proliferation and invasion, inflammatory Infiltration, oedema) and vascular permeability and oedema induced by KS cells in nude mice. […] The quantity of bFGF, VEGF, IL-1 and IL-6 was dosed with immuno-enzymatic trials in the supernatants of the KS cells after 24 hours of culture in the absence of serum and in the continuous presence of the two HIV-PI (ELISA). […] Furthermore IL-6 plays a key role in the multicentric Cstleman's diseases and in the growth of lymphomas (Tosato et al., 1993; Peterson and Frizzera, 1993; Asou et al., 1998; Ramsay et al., 1994), another type of tumour whose incidence is reduced in patients treated with HIV-PI (International Collaboration on HIV and Cancer 2000).

EA-hy 926 cells [4] = assay: Angiogenic tumours induced by EA-hy 926 cells in nude mice (drug pre-treatment); assay type: in vivo; conditions: EA-hy 926 cells 3×10^6; for No. of mice with macroscopic lesions/No. of inoculated mice / mice with macroscopic lesions (%): treatment since 2 days prior to inoculation
Procedure: (§1) To determine whether HIV-PI could inhibit the growth of a malignant angiogenic tumour, nude mice were inoculated with the EA-hy 926 cell line. This cell line is derived from a hybrid between H-UVEC and human lung adeno-carcinoma cells (Edgell et al, PNAS 1983), retains most of the endothelial cell markers and is used as an angiogenic tumour model (Albini et al, Nat Med 1996; Albini et al, PNAS 1995; Cai et al, Lab Invest 1999). HIV-PI were administered to nude mice starting 2 days prior to tumour cell inoculation.
Mice were sacrificed 5-6 days after cell injection and lesions present at the injection site measured by caliper, and analyzed microscopically after H&E staining or by immuno-histochemical analysis. […] Tumour-associated angiogenesis was evaluated after immuno-histochemical staining for FVIII-RA or CD31 markers, as described in legend to Table 1. Shown are external lesion size (cm^2±SD) and the percentage of stained tumour tissue (±SD) as quantified by the KS300 image analysis software (Zeiss) (see methods).

EA-hy 926 cells [5] = assay: Tumour angiogenic lesions induced by Ea-hy 926 cells in nude mice, no drug pre-treatment; assay type: in vivo; conditions: treatment started on the day of cell inoculation, 5 days
Procedure: Mice were inoculated subcutaneously into the lower back with Ea-hy 926 cells (3×10^6 cells/animal in 0.2 ml of 10% FBS RPMI 1640) or with the resuspension medium, all mixed with 0.2 ml of growth factor-depleted matrigel (BD Biosciences, Bedford, Mass.) prior to inoculation as described above. […] Treatment was then continued for 5 days, until sacrifice. The size of the lesions present at the injection site was evaluated daily by caliper measurement. External lesion area was then calculated as the product of the two major lesion diameters. The mean size (cm^2) of the lesions present at the injection site is shown.
as §1, with “inoculation. […] Similarly, the external tumour area was reduced in mice treated with both HIV-PI (P<0.05), reaching the size of the negative controls (Table 7). […] Inhibition of tumour growth was also observed in the absence of drug pre-treatment (FIG. 25). […]” for “inoculation.”

| Structure (SMILES) | No. of mice developing lesions/No. of mice [1] | mice developing lesions (%) [1] | regression of KS-like lesions (lesion size) [2] | proliferation [3] | production of bFGF by KS cells (bFGF) | External lesion size (cm^2 ± SD) (EA-hy 926 cells [4]) | Tissue staining (area % ± SD) CD31 (EA-hy 926 cells [4]) | Tissue staining (area % ± SD) FVIII-RA (EA-hy 926 cells [4]) | No. of mice with macroscopic lesions/No. of inoculated mice (EA-hy 926 cells [4]) | mice with macroscopic lesions (%) (EA-hy 926 cells [4]) | mice with macroscopic lesions (%) (EA-hy 926 cells [4]; listed as indinavir) | regression of tumour angiogenic lesions (lesion size) (EA-hy 926 cells [5]) |
| --- | --- | --- | --- | --- | --- | --- | --- | --- | --- | --- | --- | --- |
| CC(C)(C)NC(=O)[C@@H]1CN(Cc2cccnc2)CCN1C[C@@H](O)C[C@@H](Cc1ccccc1)C(=O)N[C@H]1c2ccccc2C[C@H]1O [Indinavir, indinavir] | 2/6 | 33% | promote the regression | do not interfere | reduced | 0.63 ± 0.17 cm^2 | 0.70 ± 0.6% | 1.01 ± 1.5% | 4/12 | 33.3% | 33% | promote the regression |
| CC(C)(C)NC(=O)[C@@H]1C[C@@H]2CCCC[C@@H]2CN1C[C@@H](O)[C@H](Cc1ccccc1)NC(=O)[C@H](CC(N)=O)NC(=O)c1ccc2ccccc2n1 [Saquinavir, saquinavir] | 1/6 | 17% | promote the regression | do not interfere | reduced | 0.55 ± 0.14 cm^2 | 0.08 ± 0.1% | 0.71 ± 0.8% | 3/12 | 25% | – | promote the regression |

From patent US20060088545A1, “Use of inhibitors of the protease of the human immunodeficiency virus (hiv) to block cell migration and/or invasion, tissue infiltration and oedema for the therary of diseases associated therewith” (priority 2001, published 2006)
